In US20120179381A1, “TOXICITY SCREENING METHODS” (priority 2010, published 2012):
Each block holds one compound with its values, some of them ahead of it.

How the values were obtained:
[1] = tested on: primary hepatocytes in sandwich culture; experiment: Liver specific toxicity assays in primary hepatocytes in sandwich culture (GSH, mitochondria, oxidative stress, GGT); type: cell-based; conditions: FIG. 11
Method: (§1) Cell Culture: Primary hepatocytes in sandwich culture were obtained freshly-plated from outside vendors and used to assess general liver toxicity. Hepatocytes were plated in 24-well or 96-well microplates at a density of 400 K/well and 100 K/well, respectively, and kept at 37° C., 5% CO2 in a humidified incubator. Sandwich culture plates have a collagen substratum with Matrigel overlay, optimal growth conditions for hepatocytes with intact and functional bile canalicular networks. After 3 days in culture, cells were shipped to the inventor. Upon receipt, medium was replaced with fresh Williams E medium (Sigma) containing 10% bovine serum (Invitrogen), and cells were acclimated overnight prior to treatment (Hewitt et al. 2007).
(§2) Cytotoxicity: ATP was measured using an ATP-Lite kit from Perkin Elmer according to the manufacturer's instructions. Membrane integrity was monitored by determining the presence of α-Glutathione S-transferase (α-GST), released into the culture medium using an ELISA assay (Argutus Medical). Intracellular glutathione levels were determined essentially as described by Griffith (1980) with modifications. Cell mass in each well was measured with propidium iodide (PI). This specific nucleic acid binding dye fluoresces when intercalated within the nucleic acids. After incubation, the test compound was removed by aspiration of the media and Triton X-100 solution containing propidium iodide was added to permeabilized cells.
8-ISO levels were determined using an ELISA. 8-ISO is a member of a family of eicosanoids produced non-enzymatically by random oxidation of tissue phospholipids by oxygen radicals. Therefore, an increase in 8-ISO is an indirect measure of increased lipid peroxidation (Vacchiano and Tempel, 1994).
γ-Glutamyltransferase (GGT) activity was measured using the Catachem GGT kit with modifications. After completion of exposures, media was removed from the plates and cell and cell supernatants were stored at −80° C. until analyzed.

[2] = target: OCT2 (Sus scrofa, UniProt O02713); conditions: Cimetidine at 500 μM or 1 mM; LLC-PK1 cell model; FIG. 4
Chain of OCT2 (O02713 whole entry): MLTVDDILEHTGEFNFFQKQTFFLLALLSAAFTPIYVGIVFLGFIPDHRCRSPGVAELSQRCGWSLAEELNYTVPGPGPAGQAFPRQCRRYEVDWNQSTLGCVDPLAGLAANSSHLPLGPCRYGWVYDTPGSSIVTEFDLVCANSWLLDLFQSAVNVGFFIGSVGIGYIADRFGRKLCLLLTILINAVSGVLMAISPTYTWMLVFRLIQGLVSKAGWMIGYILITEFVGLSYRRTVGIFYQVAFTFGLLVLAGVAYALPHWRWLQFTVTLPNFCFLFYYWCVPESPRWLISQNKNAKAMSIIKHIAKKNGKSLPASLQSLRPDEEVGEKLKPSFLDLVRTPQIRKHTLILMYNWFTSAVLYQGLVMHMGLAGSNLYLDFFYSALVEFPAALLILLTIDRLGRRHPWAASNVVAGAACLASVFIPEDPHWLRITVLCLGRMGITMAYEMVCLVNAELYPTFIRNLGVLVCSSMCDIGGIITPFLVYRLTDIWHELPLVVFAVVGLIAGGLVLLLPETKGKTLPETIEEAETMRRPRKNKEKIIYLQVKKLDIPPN
Method: (§3) Cell Culture: Two cell types were used in this Example—primary human renal proximal tubule cells (hRPTCs) and a well characterized porcine renal proximal tubule (LLC-PK1) cell line. The hRPTCs were obtained from Lonza, Clonetics (Walkersville, Md.) and the LLC-PK1 was obtained from ATCC.
(§4) Establishing Transwell Cultures: The hRPTCs were seeded into Corning transwell-COL 24-well tissue culture plates at a density of 7.4×10^4 cells/well. LLC-PK1 cells were seeded into BD 351181 transwell 24-well tissue culture plates at a cell density of 1.65×10^5 cells/well (FIG. 3). On day 6 of incubation, formation of tight-junctions between cells was determined by Lucifer Yellow and Mannitol. The growth medium used with the hRPTCs was modified DMEM/Ham's F-12, and the medium used for LLC-PK1 was DMEM with 10% FBS (Elwi et al. 2009; Morshed and McMartin, 1995).
(§5) Transport Assays: To determine transporter specific activity, several known substrates were selected: TEA (OCT1 and OCT2), Digoxin (OATP4C1), Metformin (OCT2 basolateral and MATE1 apical). LLC-PK1 cells were seeded in BD 351181 24-well tissue culture plates at a cell density of 1.65×10^5 cells/well. After culturing for 6 days, apical and basolateral chambers were washed at room temperature with D-PBS buffer (containing 137 mM NaCl, 3 mM KCl, 8 mM Na2HPO4, 1.5 mM KH2PO4, 1 mM CaCl2, 0.5 mM MgCl2 and 5 mM D-glucose; pH 7.4) then incubated with non-radiolabeled substrate on both apical and basolateral sides for 60 minutes. Media was removed and the cells rinsed with buffer prior to adding the radiolabeled substrate. Radiolabeled substrate (with or without inhibitor) was added to apical or basolateral chambers, and samples were collected from the opposite side at 40 minutes. Cellular uptake was determined by washing the transwell membranes containing the cells twice with ice-cold D-PBS, then transferring the insert with cells to scintillation vials containing 2% Triton X-100. Scintillation was counted using Opti-Flour (Perkin Elmer) and in a Packard Tri-Carb 2100TR liquid scintillation counter.

[3] = target: hOCT2 (Homo sapiens, UniProt O15244); conditions: hRPTCs; FIG. 4
Chain of hOCT2 (O15244 whole entry): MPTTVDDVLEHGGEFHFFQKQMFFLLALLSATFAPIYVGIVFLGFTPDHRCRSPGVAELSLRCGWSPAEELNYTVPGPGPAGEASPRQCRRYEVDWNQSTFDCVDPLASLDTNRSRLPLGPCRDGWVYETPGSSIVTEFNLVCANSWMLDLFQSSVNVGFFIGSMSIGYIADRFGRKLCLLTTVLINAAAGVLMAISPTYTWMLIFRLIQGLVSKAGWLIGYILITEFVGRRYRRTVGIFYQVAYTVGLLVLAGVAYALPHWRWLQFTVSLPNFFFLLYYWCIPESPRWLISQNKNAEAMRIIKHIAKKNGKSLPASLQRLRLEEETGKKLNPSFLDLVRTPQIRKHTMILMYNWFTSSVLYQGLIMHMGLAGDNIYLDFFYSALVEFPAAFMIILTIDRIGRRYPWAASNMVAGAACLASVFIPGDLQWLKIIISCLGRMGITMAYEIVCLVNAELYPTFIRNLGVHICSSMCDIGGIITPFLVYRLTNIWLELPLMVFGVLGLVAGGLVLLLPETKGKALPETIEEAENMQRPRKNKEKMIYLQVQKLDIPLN
Method: as §3, §4, §5

[4] = tested on: CYP3A; experiment: Inhibition of CYP3A; type: in vitro ADME; conditions: Table 2; number or Y/N, unit inferred
[5] = tested on: primary hepatocytes in sandwich culture; Rat (H4IIE) cells; experiment: General cell health / mitochondrial function (ATP) cytotoxicity assays of the liver toxicity screen; type: cell-based; conditions: for IC50: Rattus norvegicus, H4IIE, Table 2, unit inferred
Method: as §1
Rat (H4IIE) cells were seeded in flat bottom 96-well plates at a density of 10,000 cells/well in Eagles Minimum Essential Medium (Sigma Chemical) supplemented with 10% bovine serum and 10% calf serum (Invitrogen). Cells were allowed to equilibrate for approximately 48 hours to allow cells to move into a stable growth phase prior to treatment.
as §2

[6] = target: T1, BSEP (UniProt O95342, species not given); experiment: BSEP cell-free transport assay; type: biochemical, Rat or human; conditions: BSEP cell-free transport assay (GenoMembrane); Table 2; number or Y/N for inhibition, unit inferred
T1 construct: rows headed: BSEP
Method: (§6) Rat or human BSEP cell-free assay were performed according to GenoMembrane protocol for BSEP transport analysis.

[7] = Table 2; Y/N; cited from earlier work
[8] = tested on: hRPTC; experiment: Cisplatin cytotoxicity in primary human renal proximal tubule cells (ATP, cell number, membrane integrity, GGT); type: cell-based; conditions: FIG. 6, read-out: IC50 for ATP depletion
Method: Cytotoxicity: Cell viability was determined by measuring intracellular ATP levels with ATP-Lite from Perkin Elmer according to the manufacturer's instructions. Cell proliferation was determined from bromodeoxyuridine (BrdU) incorporation. Membrane integrity was measured using glutathione S-transferase (GST) as a leakage marker (Argutus). The GST assay was done according to the manufacturer's instructions. Gamma-glutamyl transferase activity (GGT) was measured using the Catachem GGT kit with modifications.

[9] = tested on: BSEP; experiment: BSEP cell-free transport assay; type: biochemical, Rat or human; conditions: Table 2; number or Y/N for inhibition, unit not given
Method: as §6

[10] = tested on: primary hepatocytes in sandwich culture; Rat (H4IIE) cells; experiment: Intracellular glutathione (GSH) levels, liver toxicity screen; type: cell-based; conditions: FIG. 12, read-out: depleting intracellular glutathione levels, IC50
Method: as §1, with “2007). […]” for “2007).”
Cytotoxicity: ATP was measured using an ATP-Lite kit from Perkin Elmer according to the manufacturer's instructions. Membrane integrity was monitored by determining the presence of α-Glutathione S-transferase (α-GST), released into the culture medium using an ELISA assay (Argutus Medical). Intracellular glutathione levels were determined essentially as described by Griffith (1980) with modifications. Cell mass in each well was measured with propidium iodide (PI). […]

Compound: S=C=Nc1cccc2ccccc12 [ANIT, α-naphthyl-isothiocyanate]
canalicular membrane integrity (GGT release) [1]: damaged
glutathione [1]: decreased
mitochondria [1]: disrupted
oxidative stress [1]: increased

basolateral to apical flux (metformin), effect of inhibitor [2]: inhibited
cellular uptake (metformin), effect of inhibitor [2]: inhibited
basolateral-to-apical flux (metformin), effect of inhibitor [3]: not inhibited
cellular uptake (metformin), effect of inhibitor [3]: inhibited
Compound: CN/C(=N/CCSCc1nc[nH]c1C)NC#N [Cimetidine]

IC50 [4]: 2.3 µM
Compound: CCC(C)n1ncn(-c2ccc(N3CCN(c4ccc(OCC5COC(Cn6cncn6)(c6ccc(Cl)cc6Cl)O5)cc4)CC3)cc2)c1=O (stereo not shown) [Itraconazole]
IC50 [5]: 150 µM

Compound: CCc1ccc(CCOc2ccc(CC3SC(=O)NC3=O)cc2)nc1 (stereo not shown) [Pioglitazone]
IC50 [6]: 5 µM
IC50 [5]: > 300 µM
Clin Cholestatic [7]: Y-reversible

Compound: CN(CCOc1ccc(CC2SC(=O)NC2=O)cc1)c1ccccn1 (stereo not shown) [Rosiglitazone]
IC50 [6]: 8 µM
IC50 [5]: > 300 µM

Compound: N.N.[Cl][Pt][Cl] [cisplatin]
IC50 [8]: ~80 µM

Compound: CCc1nn(CCCN2CCN(c3cccc(Cl)c3)CC2)c(=O)n1CCOc1ccccc1 [nefazodone]
BSEP [9]: inhibition
general cell health, toxicity relative to the other non-tricyclic antidepressants ([5]; FIG. 12, comparison of three non-tricyclic antidepressants): most toxic
IC50 [10]: < 50 µM
